Results as given in US11491173B2, “Pharmaceutical composition and application thereof” (priority 2018, dated 2022).
Where “and” joins values, the source holds several entries; their conditions need not be identical. Equal values may be shown once.

Experiments:
[1] = test system: H9c2 cardiomyocyte damage induced by hypoxia; experiment: Hypoxia-induced H9c2 cardiomyocyte damage, mitochondrial function (MitoTracker Deep Red FM, high-content imaging); assay type: cell-based; settings: for mitochondrial function (Table 9): individual replicates N1-N3
Procedure: (§1) 2. Experimental methods: QSYQ-1 and QSYQ-2, and each active ingredient group were ultrasonically dissolved and prepared into a 0.4 mg/mL of stock solution with DMSO. When in vitro activity evaluation was performed, the above groups were diluted with the same amount of experimental medium respectively.
(§2) The cells were collected at the logarithmic growth phase and added to a 96-well culture plate with a black transparent bottom at a concentration of 5000 cells per well and a volume of 100 μL per well. The cells were incubated in an incubator with 5% CO2 at 37° C. for 24 hours. Subsequently, the tested groups were added to the experimental groups respectively, incubated for 24 hours, and then placed in a hypoxic chamber passing a mixed gas composed of 95% nitrogen and 5% CO2 at a flow rate of 15 L/min for 10 mins, and incubated for another 8 hours after inducing hypoxia damage at 37° C. The model group was only incubated for 8 hours under hypoxia, and the blank control group was incubated normally.
(§3) The labeling operation of cell fluorescent probe was as follows: the mother liquor of fluorescent probe Hoechst 33342 was diluted 1000-fold into a DMEM basic medium; then the mother liquor of MitoTracker Deep Red FM was diluted 10000-fold into a culture medium containing Hoechst 33342 to serve as a “cocktail” stain. The medium in the culture plate was discarded and replaced with the “cocktail” stain, 50 μL per well, and incubated in an incubator away from light for 30 mins. The plate was taken out away from light, and washed with DMEM (high glucose) for 3 times and 5 minutes each time. Live cell imaging was performed subsequently.
(§4) The operation of live cell imaging with HCS was as follows: an excitation light of 360-400 and an emission light of 410-480 were selected for the imaging of Hoechst 33342-labeled nuclei; an excitation light of 620-640 and an emission light of 650-760 were selected for the imaging of MitoTracker Deep Red FM-labeled mitochondria. Harmony 3.0 software was applied to analyze the HCS imaging and read the fluorescence intensities of the nucleus/cytoplasm. The HCS screening system combined the automatic fluorescence microscopy imaging functions, and can perform a high-throughput multi-index analysis. Columbus high-efficiency image and data management and analysis system were applied to perform a secondary analysis and management of the image and data, and draw the dosage-dependent curve relationship.

[2] = test system: H9c2 cardiomyocyte damage induced by hypoxia; experiment: Hypoxia-induced H9c2 cardiomyocyte damage, nucleus number (Hoechst 33342, high-content imaging); assay type: cell-based; settings: for nucleus number (Table 7): individual replicates N1-N3, 0.4 mg/mL DMSO stock diluted with medium
Procedure: as §1, §2, §3, §4

[3] = 24 h pre-incubation, then hypoxia 8 h
[4] = mean of N1-N3, 24 h pre-incubation, then hypoxia 8 h

Compound: Cc1coc2c1C(=O)C(=O)c1c-2ccc2c(C)cccc12 [Tanshinone I, tanshinone I]
- mitochondrial function (Table 9) [1, 3]: 876.03 and 904.55 and 828.87
- mitochondrial function, Mean (Table 9) [1, 4]: 869.8
- nucleus number (Table 7) [2, 3]: 379 and 315 and 300
- nucleus number, Mean (Table 7) [2, 4]: 331.3

Compound: CC(C)=CCC[C@](C)(O[C@@H]1O[C@H](CO)[C@@H](O)[C@H](O)[C@H]1O)[C@H]1CC[C@]2(C)[C@@H]1[C@H](O)C[C@@H]1[C@@]3(C)CC[C@H](O[C@@H]4O[C@H](CO)[C@@H](O)[C@H](O)[C@H]4O[C@@H]4O[C@H](CO)[C@@H](O)[C@H](O)[C@H]4O)C(C)(C)[C@@H]3CC[C@]12C [Ginsenoside Rd, ginsenoside Rd]
- mitochondrial function, Mean (Table 9) ([1]; 8 h): 820.9
- nucleus number, Mean (Table 7) ([2]; 8 h): 408.0

Compound: CC(C)=CCC[C@](C)(O[C@@H]1O[C@H](CO)[C@@H](O)[C@H](O)[C@H]1O)[C@H]1CC[C@]2(C)[C@@H]1[C@H](O)C[C@@H]1[C@@]3(C)CC[C@H](O)C(C)(C)[C@@H]3[C@@H](O[C@@H]3O[C@H](CO)[C@@H](O)[C@H](O)[C@H]3O[C@@H]3OC[C@@H](O)[C@H](O)[C@H]3O)C[C@]12C [Notoginsenoside R1, notoginsenoside R1]
- mitochondrial function (Table 9) ([1]; 24 h pre-incubation, then hypoxia 8 h, listed as Notoainsenoside R1): 841.9 and 950.39 and 985.33
- mitochondrial function, Mean (Table 9) [1, 4]: 925.9
- nucleus number (Table 7) [2, 3]: 360 and 383 and 355
- nucleus number, Mean (Table 7) [2, 4]: 366.0

Compound: astragaloside [Astragaioside]
- mitochondrial function (Table 9) ([1]; 24 h pre-incubation, then hypoxia 8 h, listed as Astradaloside): 812.45 and 768.63 and 871.37
- mitochondrial function, Mean (Table 9) [1, 4]: 817.5
- nucleus number (Table 7) [2, 3]: 374 and 365 and 435
- nucleus number, Mean (Table 7) [2, 4]: 391.3

Compound: O=C(/C=C/c1ccc(O)c(O)c1/C(=C\c1ccc(O)c(O)c1)C(=O)O)O[C@H](Cc1ccc(O)c(O)c1)C(=O)O [Salvianolic acid T, salvianolic acid T]
- mitochondrial function (Table 9) [1, 3]: 815.14 and 888.53 and 824.27
- mitochondrial function, Mean (Table 9) [1, 4]: 842.6
- nucleus number (Table 7) [2, 3]: 325 and 279 and 284
- nucleus number, Mean (Table 7) [2, 4]: 296.0

Compound: O=C(/C=C/c1ccc(O)c2c1[C@H](C(=O)O)[C@@H](c1ccc(O)c(O)c1)O2)O[C@H](Cc1ccc(O)c(O)c1)C(=O)O [Lithospermic acid, lithospermic acid]
- mitochondrial function, Mean (Table 9) [1, 4]: 811.6
- nucleus number, Mean (Table 7) [2, 4]: 356.0

Compound: COc1ccc(-c2coc3cc(O)ccc3c2=O)cc1 [Formononetin, formononetin]
- mitochondrial function, Mean (Table 9) [1, 4]: 863.7
- nucleus number, Mean (Table 7) [2, 4]: 376.3

Compound: COc1ccc(-c2coc3cc(O)ccc3c2=O)cc1O [Calycosin, calycosin]
- mitochondrial function, Mean (Table 9) [1, 4]: 905.6
- nucleus number, Mean (Table 7) [2, 4]: 386.0

Compound: COc1ccc(-c2coc3cc(O[C@@H]4O[C@H](CO)[C@@H](O)[C@H](O)[C@H]4O)ccc3c2=O)cc1O [Calycosin-7-glucoside, calycosin-7-glucoside]
- mitochondrial function (Table 9) [1, 3]: 967.77 and 861.05 and 877.99
- mitochondrial function, Mean (Table 9) [1, 4]: 902.3
- nucleus number (Table 7) [2, 3]: 312 and 366 and 323
- nucleus number, Mean (Table 7) [2, 4]: 333.7

Compound: C[C@H]1COC2=C1C(=O)C(=O)c1c2ccc2c1CCCC2(C)C [Cryptotanshinone, cryptotanshinone]
- mitochondrial function, Mean (Table 9) [1, 4]: 853.8
- nucleus number, Mean (Table 7) [2, 4]: 349.0

Compound: O=C(O)Cc1c(/C=C/C(=O)O[C@H](Cc2ccc(O)c(O)c2)C(=O)O)ccc(O)c1O [Salvianolic acid D, salvianolic acid D]
- mitochondrial function (Table 9) [1, 3]: 946.71 and 900.04 and 920.17
- mitochondrial function, Mean (Table 9) [1, 4]: 922.3
- nucleus number (Table 7) [2, 3]: 306 and 236 and 273
- nucleus number, Mean (Table 7) [2, 4]: 271.7

Compound: O=Cc1ccc(O)c(O)c1 [Protocatechuic aldehyde, protocatechuic aldehyde]
- mitochondrial function (Table 9) [1, 3]: 946.04 and 881.05 and 901.89
- mitochondrial function, Mean (Table 9) [1, 4]: 909.7
- nucleus number (Table 7) [2, 3]: 361 and 345 and 303
- nucleus number, Mean (Table 7) [2, 4]: 336.3

Compound: Cc1cccc2c3c(ccc12)C1=C(C(=O)C3=O)[C@@H](C)CO1 [Dihydrotanshinone I, dihydrotanshinone I]
- mitochondrial function (Table 9) [1, 3]: 930.1 and 918.77 and 813.04
- mitochondrial function, Mean (Table 9) [1, 4]: 887.3
- nucleus number (Table 7) [2, 3]: 303 and 373 and 313
- nucleus number, Mean (Table 7) [2, 4]: 339.7

Compound: O=C(/C=C/c1ccc(O)c(O)c1/C=C/c1ccc(O)c(O)c1)O[C@H](Cc1ccc(O)c(O)c1)C(=O)O [Salvianolic acid A, salvianolic acid A]
- mitochondrial function (Table 9) ([1]; 24 h pre-incubation, then hypoxia 8 h, listed as Saivianolic acid A): 914.19 and 859.26 and 941.93
- mitochondrial function, Mean (Table 9) [1, 4]: 905.1
- nucleus number (Table 7) [2, 3]: 264 and 287 and 254
- nucleus number, Mean (Table 7) [2, 4]: 268.3

Compound: O=C(/C=C/c1ccc(O)c(O)c1)O[C@H](Cc1ccc(O)c(O)c1)C(=O)O [Rosmarinic acid, rosmarinic acid]
- mitochondrial function, Mean (Table 9) [1, 4]: 790.6
- nucleus number, Mean (Table 7) [2, 4]: 345.3

Compound: O=C(/C=C/c1ccc(O)c2c1C=Cc1cc(O)c(O)cc1O2)O[C@H](Cc1ccc(O)c(O)c1)C(=O)O [Isosalvianolic acid C, isosalvianolic acid C]
- mitochondrial function (Table 9) [1, 3]: 766.96 and 812.08 and 738.89
- mitochondrial function, Mean (Table 9) [1, 4]: 772.6
- nucleus number (Table 7) [2, 3]: 293 (2×) and 326
- nucleus number, Mean (Table 7) [2, 4]: 304.0

Compound: O=C(/C=C/c1ccc(O)c(O)c1/C(=C\c1ccc(O)c(O)c1)C(=O)O)O[C@H](Cc1ccc(O)c(O)c1)C(=O)O [Salvianolic acid U, salvianolic acid U]
- mitochondrial function (Table 9) [1, 3]: 992.37 and 840.14 and 895.53
- mitochondrial function, Mean (Table 9) [1, 4]: 909.3
- nucleus number (Table 7) [2, 3]: 349 and 315 and 252
- nucleus number, Mean (Table 7) [2, 4]: 305.3

Compound: COc1ccc(-c2coc3cc(O[C@@H]4O[C@H](CO)[C@@H](O)[C@H](O)[C@H]4O)ccc3c2=O)cc1 [Ononin, ononin]
- mitochondrial function, Mean (Table 9) [1, 4]: 695.0
- nucleus number, Mean (Table 7) [2, 4]: 366.0

Compound: O=C(O)[C@H](O)Cc1ccc(O)c(O)c1 [Danshensu]
- mitochondrial function (Table 9) [1, 3]: 909.24 and 845.81 and 882.04
- mitochondrial function, Mean (Table 9) [1, 4]: 879.0
- nucleus number (Table 7) [2, 3]: 326 and 371 and 342
- nucleus number, Mean (Table 7) [2, 4]: 346.3

Compound: O=C(O)C1Cc2ccc(O)c3c2C(=Cc2ccc(O)c(O)c2O3)C1=O (centres unmarked) [Salvianolic acid G, salvianolic acid G]
- mitochondrial function (Table 9) ([1]; 24 h pre-incubation, then hypoxia 8 h, listed as Saivianolic acid G): 870.9 and 831.06 and 901.01
- mitochondrial function, Mean (Table 9) [1, 4]: 867.7
- nucleus number (Table 7) [2, 3]: 380 and 328 and 391
- nucleus number, Mean (Table 7) [2, 4]: 366.3

Compound: CC(C)=CCC[C@](C)(O[C@@H]1O[C@H](CO)[C@@H](O)[C@H](O)[C@H]1O)[C@H]1CC[C@]2(C)[C@@H]1[C@H](O)C[C@@H]1[C@@]3(C)CC[C@H](O)C(C)(C)[C@@H]3[C@@H](O[C@@H]3O[C@H](CO)[C@@H](O)[C@H](O)[C@H]3O)C[C@]12C [Ginsenoside Rg1, ginsenoside Rg1]
- mitochondrial function (Table 9) [1, 3]: 843.46 and 918.73 and 954.27
- mitochondrial function, Mean (Table 9) [1, 4]: 905.5
- nucleus number (Table 7) [2, 3]: 264 and 310 and 350
- nucleus number, Mean (Table 7) [2, 4]: 308.0

Compound: Cc1coc2c1C(=O)C(=O)c1c-2ccc2c1CCCC2(C)C [Tanshinone IIA, tanshinone IIA]
- mitochondrial function, Mean (Table 9) [1, 4]: 695.2
- nucleus number, Mean (Table 7) [2, 4]: 393.3

Compound: CC(C)=CCC[C@](C)(O[C@@H]1O[C@H](CO[C@@H]2O[C@H](CO)[C@@H](O)[C@H](O)[C@H]2O)[C@@H](O)[C@H](O)[C@H]1O)[C@H]1CC[C@]2(C)[C@@H]1[C@H](O)C[C@@H]1[C@@]3(C)CC[C@H](O[C@@H]4O[C@H](CO)[C@@H](O)[C@H](O)[C@H]4O[C@@H]4O[C@H](CO)[C@@H](O)[C@H](O)[C@H]4O)C(C)(C)[C@@H]3CC[C@]12C [Ginsenoside Rb1, ginsenoside Rb1]
- mitochondrial function (Table 9) [1, 3]: 778.78 and 843.1 and 822.04
- mitochondrial function, Mean (Table 9) [1, 4]: 814.6
- nucleus number (Table 7) [2, 3]: 406 and 420 and 386
- nucleus number, Mean (Table 7) [2, 4]: 404.0

Compound: O=C(/C=C/c1ccc(O)c2c1[C@H](C(=O)O[C@H](Cc1ccc(O)c(O)c1)C(=O)O)[C@@H](c1ccc(O)c(O)c1)O2)O[C@H](Cc1ccc(O)c(O)c1)C(=O)O [Salvianolic acid B, salvianolic acid B]
- mitochondrial function (Table 9) [1, 3]: 801.62 and 853.39 and 910.53
- mitochondrial function, Mean (Table 9) [1, 4]: 855.2
- nucleus number (Table 7) [2, 3]: 385 and 364 and 435
- nucleus number, Mean (Table 7) [2, 4]: 394.7
